The target of one assay is T1, human CYP11B2 (Homo sapiens, UniProt P19099).
T1 construct: expressed in transfected cells
T1 sequence (P19099 25-503): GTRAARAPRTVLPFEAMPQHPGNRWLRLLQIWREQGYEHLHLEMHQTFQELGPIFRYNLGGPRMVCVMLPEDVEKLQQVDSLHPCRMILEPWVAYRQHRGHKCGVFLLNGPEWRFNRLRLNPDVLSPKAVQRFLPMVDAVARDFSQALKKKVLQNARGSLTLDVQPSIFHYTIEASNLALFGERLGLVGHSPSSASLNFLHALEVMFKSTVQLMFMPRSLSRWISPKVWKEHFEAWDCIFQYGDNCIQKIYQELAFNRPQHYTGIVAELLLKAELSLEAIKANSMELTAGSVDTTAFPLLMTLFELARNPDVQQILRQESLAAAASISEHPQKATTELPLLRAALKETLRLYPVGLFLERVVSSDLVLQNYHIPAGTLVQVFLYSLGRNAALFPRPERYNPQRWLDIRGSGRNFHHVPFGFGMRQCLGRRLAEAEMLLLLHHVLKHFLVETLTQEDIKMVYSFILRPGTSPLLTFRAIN
Description: G-402 cellular enzyme assay, human CYP11B2 (aldosterone release, HTRF). The format is cell-based. The following applies: G-402 cells, 1 μM Deoxycorticosterone. Put shortly: (§1)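 G-402 cells stably expressing human CYP11B1 or CYP11B2 incubated 16 h in DMEM/F12 with 2.5% charcoal-treated FCS, compound, and 1 μM 11-deoxycortisol (B1) or 1 μM deoxycorticosterone (B2). Cortisol (B1) or aldosterone (B2) in supernatant measured by HTRF; EC50 from 4-parameter MMF fit.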
On the technique in general: Time-resolved FRET reads energy transfer from a long-lived donor to a nearby acceptor.

The target of another assay is T2, human CYP11B1 (Homo sapiens, UniProt P15538).
T2 construct: expressed in transfected cells
T2 sequence (P15538 25-503): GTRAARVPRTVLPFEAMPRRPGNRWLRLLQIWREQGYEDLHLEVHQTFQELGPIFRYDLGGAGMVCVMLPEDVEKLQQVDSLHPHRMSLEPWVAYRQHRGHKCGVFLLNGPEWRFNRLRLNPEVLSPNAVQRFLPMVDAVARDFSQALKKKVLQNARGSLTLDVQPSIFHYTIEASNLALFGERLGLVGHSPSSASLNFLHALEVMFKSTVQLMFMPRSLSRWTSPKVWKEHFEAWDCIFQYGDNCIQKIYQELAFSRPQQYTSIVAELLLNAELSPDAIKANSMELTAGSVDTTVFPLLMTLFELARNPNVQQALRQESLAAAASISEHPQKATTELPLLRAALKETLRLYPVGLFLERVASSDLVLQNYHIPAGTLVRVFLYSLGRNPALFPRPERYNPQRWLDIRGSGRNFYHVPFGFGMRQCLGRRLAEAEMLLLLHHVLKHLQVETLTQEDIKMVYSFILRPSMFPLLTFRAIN
Briefly: G-402 cellular enzyme assay, human CYP11B1 (cortisol release, HTRF). It is filed as cell-based. The note with it: G-402 cells, 1 μM Deoxycortisol. An outline of the steps:
as §1

Take `O=Cc1cncc(N2CCc3cc(Cl)ccc3C2=O)c1` [Example 9, 5-(6-Chloro-1-oxo-3,4-dihydro-1H-isoquinolin-2-yl)-pyridine-3-carbaldehyde]: the EC50 (commonly the midpoint of the concentration-response curve) is 117 nM on human CYP11B2 and 4740 nM on human CYP11B1.

In the case of `CC1(C)c2nc(Cl)ccc2C(=O)N1c1cncc(CNc2cc[nH]n2)c1` [Example 383, 2-Chloro-7,7-dimethyl-6-{5-[(1H-pyrazol-3-ylamino)-methyl]-pyridin-3-yl}-6,7-dihydro-pyrrolo[3,4-b]pyridin-5-one], the EC50 on human CYP11B2 amounted to 21 nM; on human CYP11B1 it was 771 nM.

In the case of `CC[C@H]1c2cc(Cl)ccc2C(=O)N1c1cncc2c1CCC[C@H]2NS(C)(=O)=O` (single isomer, unassigned) [Example 350, N-[(R or S)-4-((S or R)-5-Chloro-3-ethyl-1-oxo-1,3-dihydro-isoindol-2-yl)-5,6,7,8-tetrahydro-isoquinolin-8-yl]-methanesulfonamide], the EC50 on human CYP11B2 was 59.4 nM; on human CYP11B1, 3680 nM.

For `CC(O)c1ccncc1N1CCc2cc(Cl)ccc2C1=O` (stereo not drawn) [Example 55, 6-Chloro-2-[4-(1-hydroxy-ethyl)-pyridin-3-yl]-3,4-dihydro-2H-isoquinolin-1-one], the EC50 came to 343 nM at human CYP11B2 and 9850 nM at human CYP11B1.

For `O=C1CCCN1Cc1cncc(N2Cc3cc(Cl)ccc3C2=O)c1` [Example 112, 5-Chloro-2-[5-(2-oxo-pyrrolidin-1-ylmethyl)-pyridin-3-yl]-2,3-dihydro-isoindol-1-one], the EC50 was found to be 674 nM at human CYP11B2 and 12000 nM at human CYP11B1.

With `O=C1c2ccc(Cl)cc2C(C2CC2)N1c1cncc(OC(F)F)c1` (stereo not drawn) [Example 302, 5-Chloro-3-cyclopropyl-2-(5-difluoromethoxy-pyridin-3-yl)-2,3-dihydro-isoindol-1-one], the EC50 was determined as 93.2 nM at human CYP11B2 and 5190 nM at human CYP11B1.

With `NCc1cncc(N2CCc3cc(Cl)ccc3C2=O)c1` [Example 192, 2-(5-Aminomethyl-pyridin-3-yl)-6-chloro-3,4-dihydro-2H-isoquinolin-1-one], the EC50 at human CYP11B2 amounted to 2200 nM; at human CYP11B1, 10300 nM.

`O=C1c2ccc(Cl)cc2CCN1c1cncc(Cn2ccc3cccc(F)c32)c1` [Example 185, 6-Chloro-2-[5-(7-fluoro-indol-1-ylmethyl)-pyridin-3-yl]-3,4-dihydro-2H-isoquinolin-1-one]: the 50% effective concentration (EC50) at human CYP11B2 stood at 66 nM; on human CYP11B1, 673 nM.

Consider `CC(=O)N1CCC(c2cncc(N3C(=O)c4ccc(Cl)cc4C3(C)C)c2)CC1` [Example 461, 2-(1′-Acetyl-1′,2′,3′,4′,5′,6′-hexahydro-[3,4′]bipyridinyl-5-yl)-5-chloro-3,3-dimethyl-2,3-dihydro-isoindol-1-one], for which the EC50 on human CYP11B2 was 4 nM; on human CYP11B1, 361 nM.

As for `O=C1c2ccc(Cl)cc2CCN1c1cncc(NCc2ccc(F)cc2)c1` [Example 222, 6-Chloro-2-[5-(4-fluoro-benzylamino)-pyridin-3-yl]-3,4-dihydro-2H-isoquinolin-1-one], the EC50 on human CYP11B2 amounted to 80.3 nM; on human CYP11B1 it was 343 nM.

Turning to `CC(=O)NC1CCCc2c1cncc2N1Cc2cc(Cl)ccc2C1=O` (single isomer, unassigned) [Example 323, N-[(R or S)-4-(5-Chloro-1-oxo-1,3-dihydro-isoindol-2-yl)-5,6,7,8-tetrahydro-isoquinolin-8-yl]-acetamide], the figures for the EC50 on human CYP11B2 and on human CYP11B1 were 44.2 nM and 2350 nM, respectively.

`CS(=O)(=O)c1ccc(Cc2cncc(N3CCc4cc(Cl)ccc4C3=O)c2)cc1` [Example 205, 6-Chloro-2-[5-(4-methanesulfonyl-benzyl)-pyridin-3-yl]-3,4-dihydro-2H-isoquinolin-1-one]: the EC50 at human CYP11B2 turned out to be 0.5 nM; at human CYP11B1, 0.6 nM.

With `Cc1nc2ccccc2n1Cc1cncc(N2CCc3cc(Cl)ccc3C2=O)c1` [Example 181, 6-Chloro-2-[5-(2-methyl-benzoimidazol-1-ylmethyl)-pyridin-3-yl]-3,4-dihydro-2H-isoquinolin-1-one], the EC50 was 217 nM at human CYP11B2 and 1970 nM at human CYP11B1.

As to `O=C1c2ccc(Cl)cc2CCN1c1cncc(Cn2ccnn2)c1` [Example 175, 6-Chloro-2-(5-[1,2,3]triazol-1-ylmethyl-pyridin-3-yl)-3,4-dihydro-2H-isoquinolin-1-one], the EC50 at human CYP11B2 was 105 nM; on human CYP11B1 it was 656 nM.

As for `CCC(=O)NC1CCCc2c1cncc2N1CCc2cc(Cl)ccc2C1=O` (single isomer, unassigned) [Example 329, N-((S or R)-6-Chloro-1-oxo-3,4,5′,6′,7′,8′-hexahydro-1H-[2,4′]biisoquinolinyl-8′-yl)-propionamide], the EC50 on human CYP11B2 is 6020 nM; on human CYP11B1 it was 12000 nM.

On to `C[C@@H](O)c1cncc(N2CCc3cc(Cl)ccc3C2=O)c1` [Example 14, 6-Chloro-2-[5-((R)-1-hydroxy-ethyl)-pyridin-3-yl]-3,4-dihydro-2H-isoquinolin-1-one], for which the EC50 was 55 nM at human CYP11B2 and 1100 nM on human CYP11B1.

With `CCS(=O)(=O)N(C)Cc1cncc(N2C(=O)c3ccc(F)cc3C23CC3)c1` [Example 394, N-{[5-(6′-Fluoro-3′-oxospiro [cyclopropane-1,1′-isoindol]-2′(3′H)-yl)pyridin-3-yl]methyl}-N-methylethane-sulfonamide], the EC50 on human CYP11B2 was 45.6 nM; at human CYP11B1, 2920 nM.

Consider `Cn1ncc2c(N3Cc4cc(Cl)ccc4C3=O)cncc21` [Example 116, 5-Chloro-2-(1-methyl-1H-pyrazolo[3,4-c]pyridin-4-yl)-2,3-dihydro-isoindol-1-one], for which the EC50 is 132 nM on human CYP11B2 and 5130 nM on human CYP11B1.

With `O=C1c2ccc(Cl)cc2CCN1c1cncc(N2CCOCC2)c1` [Example 224, 6-Chloro-2-(5-morpholin-4-yl-pyridin-3-yl)-3,4-dihydro-2H-isoquinolin-1-one], the results for the half-maximal effective concentration (EC50) at human CYP11B2 and on human CYP11B1 were 37.2 nM and 293 nM, respectively.

Consider `CC(=O)NC1CCc2c1cncc2N1Cc2cc(Cl)ccc2C1=O` (single isomer, unassigned; (+)) [Example 319, (+)-N—[(R or S)-4-(5-Chloro-1-oxo-1,3-dihydro-isoindol-2-yl)-6,7-dihydro-5H-[2]pyrindin-7-yl]-acetamide], for which the half-maximal effective concentration (EC50) stood at 109 nM at human CYP11B2 and 5130 nM on human CYP11B1.

With `Cn1ccnc1C(O)c1cncc(N2CCc3cc(Cl)ccc3C2=O)c1` (stereo not drawn) [Example 30, 6-Chloro-2-{5-[hydroxy-(1-methyl-1H-imidazol-2-yl)-methyl]-pyridin-3-yl}-3,4-dihydro-2H-isoquinolin-1-one], the EC50 at human CYP11B2 was found to be 751 nM; on human CYP11B1, 2070 nM.

`O=C1c2ccc(Cl)cc2CCN1c1cncc(Cl)c1` [Example 4, 6-Chloro-2-(5-chloro-pyridin-3-yl)-3,4-dihydro-2H-isoquinolin-1-one]: the figures for the EC50 at human CYP11B2 and on human CYP11B1 were 67.1 nM and 1240 nM, respectively.

For `CC1(C)c2cc(Cl)ccc2C(=O)N1c1cncc(OC2CCN(S(C)(=O)=O)C2)c1` (stereo not drawn) [Example 445, 5-Chloro-2-[5-(1-methanesulfonyl-pyrrolidin-3-yloxy) -pyridin-3-yl]-3,3-dimethyl-2,3-dihydro-isoindol-1-one], the EC50 came to 7.4 nM on human CYP11B2 and 914 nM on human CYP11B1.

Consider `CC(=O)NC1CCCc2c1cncc2N1CCc2cc(Cl)ccc2C1=O` (single isomer, unassigned) [Example 321, N-((S or R)-6-Chloro-1-oxo-3,4,5′,6′,7′,8′-hexahydro-1H-[2,4′]biisoquinolinyl-8′-yl)-acetamide], for which the concentration for a half-maximal effect (EC50) is 55.6 nM at human CYP11B2 and 3990 nM on human CYP11B1.

Turning to `O=C(Cc1cncc(N2CCc3cc(Cl)ccc3C2=O)c1)NCCO` [Example 264, 2-[5-(6-Chloro-1-oxo-3,4-dihydro-4H-isoquinolin-2-yl)-pyridin-3-yl]-N-(2-hydroxy-ethyl)-acetamide], the 50% effective concentration (EC50) at human CYP11B2 was 843 nM; at human CYP11B1, 4190 nM.

For `CS(=O)(=O)NCc1cncc(N2C(=O)c3cc(F)ccc3C23CC3)c1` [Example 401, N-{[5-(5′-Fluoro-3′-oxospiro [cyclopropane-1,1′-isoindol]-2′(3′H)-yl)pyridin-3-yl]methyl} methane-sulfonamide], the EC50 turned out to be 360 nM at human CYP11B2 and 9100 nM at human CYP11B1.

As to `O=C1c2ccc(Cl)cc2CCN1c1cnccc1C(F)(F)F` [Example 22, 6-Chloro-2-(4-trifluoromethyl-pyridin-3-yl)-3,4-dihydro-2H-isoquinolin-1-one], the values for the half-maximal effective concentration (EC50) at human CYP11B2 and on human CYP11B1 were 55.7 nM and 517 nM, respectively.

The values are drawn from patent US9133158B2, “Bicyclic dihydroisoquinoline-1-one derivatives” (Hoffmann-La Roche Inc., priority 2011, dated 2015).
